Experimental findings from paper PMC11599936, “New-to-nature CO2-dependent acetyl-CoA assimilation enabled by an engineered B12-dependent acyl-CoA mutase” (Nature Communications, 2024) are described below.

Common to all, as to format: biochemical
In assay [1] the target is T1, 2-hydroxyisobutyryl-CoA mutase from Aquincola tertiaricarbonis (Aquincola tertiaricarbonis, UniProt I3VE74+I3VE77).
T1 construct: gene hcmA
T1 sequence (I3VE77 1-562): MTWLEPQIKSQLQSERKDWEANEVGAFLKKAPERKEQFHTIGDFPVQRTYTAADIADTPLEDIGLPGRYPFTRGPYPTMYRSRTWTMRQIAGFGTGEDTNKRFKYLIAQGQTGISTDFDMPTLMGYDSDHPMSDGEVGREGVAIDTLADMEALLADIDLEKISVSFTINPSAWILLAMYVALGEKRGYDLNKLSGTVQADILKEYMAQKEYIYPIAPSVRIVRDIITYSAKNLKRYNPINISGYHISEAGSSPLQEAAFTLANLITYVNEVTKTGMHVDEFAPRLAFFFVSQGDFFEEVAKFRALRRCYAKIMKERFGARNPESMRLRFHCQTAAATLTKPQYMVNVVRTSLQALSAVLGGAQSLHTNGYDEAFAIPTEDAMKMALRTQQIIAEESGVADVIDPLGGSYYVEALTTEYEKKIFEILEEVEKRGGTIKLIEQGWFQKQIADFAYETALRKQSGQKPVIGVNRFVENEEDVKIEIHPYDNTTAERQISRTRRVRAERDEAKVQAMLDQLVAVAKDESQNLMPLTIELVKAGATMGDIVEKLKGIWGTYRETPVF
T1 sequence (I3VE74 1-136): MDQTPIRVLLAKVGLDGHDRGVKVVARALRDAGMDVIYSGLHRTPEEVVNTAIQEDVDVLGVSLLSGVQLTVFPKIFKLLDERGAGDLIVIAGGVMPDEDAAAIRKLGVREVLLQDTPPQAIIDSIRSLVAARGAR
The assay is described as follows: coupled PhaJ/Etr1p assay, NADPH at […] nm. Conditions: 12.5 µM coenzyme B12, 50 mM NaPO4 pH 7, 30 °C.

Assay [2] deals with T2, Pct (Cupriavidus necator, UniProt Q0K874).
T2 construct: recombinant from E. coli BL21 (DE3), Ni-NTA purified
T2 sequence (Q0K874 1-542): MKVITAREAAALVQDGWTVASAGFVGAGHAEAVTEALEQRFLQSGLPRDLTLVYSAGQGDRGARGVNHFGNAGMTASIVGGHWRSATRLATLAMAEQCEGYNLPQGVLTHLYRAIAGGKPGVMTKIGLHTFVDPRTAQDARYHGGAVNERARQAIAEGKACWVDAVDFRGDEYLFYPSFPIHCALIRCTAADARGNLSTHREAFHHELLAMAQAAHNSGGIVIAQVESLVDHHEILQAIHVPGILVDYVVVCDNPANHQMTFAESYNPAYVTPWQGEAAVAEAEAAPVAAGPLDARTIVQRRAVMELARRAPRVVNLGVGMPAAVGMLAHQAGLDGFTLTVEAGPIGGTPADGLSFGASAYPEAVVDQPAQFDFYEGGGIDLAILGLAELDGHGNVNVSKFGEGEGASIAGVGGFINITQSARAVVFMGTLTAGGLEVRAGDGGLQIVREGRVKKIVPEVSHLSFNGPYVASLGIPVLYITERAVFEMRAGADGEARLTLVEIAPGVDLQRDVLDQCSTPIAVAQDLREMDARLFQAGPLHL
The assay is described as follows: LC-MS CoA-transfer assay. Conditions: 100 mM HEPES pH 7.5, 10 mM MgCl2, 30 °C.

Assay [3] deals with T3, AbfT (Clostridium aminobutyricum, UniProt Q9RM86).
T3 construct: recombinant from E. coli BL21 (DE3), Ni-NTA purified
T3 sequence (Q9RM86 1-438): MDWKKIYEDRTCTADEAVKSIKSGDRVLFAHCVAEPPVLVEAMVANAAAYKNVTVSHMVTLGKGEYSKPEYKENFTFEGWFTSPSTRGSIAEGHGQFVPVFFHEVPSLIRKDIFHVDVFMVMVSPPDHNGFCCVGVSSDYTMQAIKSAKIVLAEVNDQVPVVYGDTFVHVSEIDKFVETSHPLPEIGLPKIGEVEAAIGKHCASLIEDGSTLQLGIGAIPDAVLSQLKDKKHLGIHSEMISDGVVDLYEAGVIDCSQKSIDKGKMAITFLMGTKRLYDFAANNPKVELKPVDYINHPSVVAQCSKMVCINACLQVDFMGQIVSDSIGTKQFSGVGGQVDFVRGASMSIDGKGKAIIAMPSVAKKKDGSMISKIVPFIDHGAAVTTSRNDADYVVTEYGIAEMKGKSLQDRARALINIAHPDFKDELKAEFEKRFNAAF
The assay is described as follows: LC-MS CoA-transfer assay. Conditions: 100 mM HEPES pH 7.5, 10 mM MgCl2, 30 °C.

Setting [4] is: CoA donor acetyl-CoA 100 µM, 1 mM acid.

As to `CC(C)(O)C(=O)SCCNC(=O)CCNC(=O)[C@H](O)C(C)(C)COP(=O)(O)OP(=O)(O)OC[C@H]1O[C@@H](n2cnc3c(N)ncnc32)[C@H](O)[C@@H]1OP(=O)(O)O` [2-hydroxyisobutyryl-CoA], in assay [1], the “coupled PhaJ/Etr1p assay, NADPH at 340 nm” value is reported as “we confirmed functionality of this purified enzyme with its native substrate 2-hydroxyisobutyryl-CoA”. As for `O=C(O)CCO` [3-hydroxypropionate], the “LC-MS CoA-transfer assay” value was “performed best with 3-HP as CoA-acceptor and acetyl-CoA as CoA-donor” in assay [2] (setting [4]); “performed best with 3-HP as CoA-acceptor and acetyl-CoA as CoA-donor” in assay [3] (setting [4]). Consider `CC(=O)SCCNC(=O)CCNC(=O)[C@H](O)C(C)(C)COP(=O)(O)OP(=O)(O)OC[C@H]1O[C@@H](n2cnc3c(N)ncnc32)[C@H](O)[C@@H]1OP(=O)(O)O` [acetyl-CoA], for which the “LC-MS CoA-transfer assay” value is “performed best with 3-HP as CoA-acceptor and acetyl-CoA as CoA-donor” in assay [2] (CoA acceptor 3-HP 1 mM); “performed best with 3-HP as CoA-acceptor and acetyl-CoA as CoA-donor” in assay [3] (CoA acceptor 3-HP 1 mM).
